Target: T1, thioredoxin reductase 1 (TrxR1, cytosolic) (Rattus norvegicus, UniProt O89049)
T1 construct: gene Txnrd1; highly purified enzyme from rat liver
T1 sequence (O89049 1-499): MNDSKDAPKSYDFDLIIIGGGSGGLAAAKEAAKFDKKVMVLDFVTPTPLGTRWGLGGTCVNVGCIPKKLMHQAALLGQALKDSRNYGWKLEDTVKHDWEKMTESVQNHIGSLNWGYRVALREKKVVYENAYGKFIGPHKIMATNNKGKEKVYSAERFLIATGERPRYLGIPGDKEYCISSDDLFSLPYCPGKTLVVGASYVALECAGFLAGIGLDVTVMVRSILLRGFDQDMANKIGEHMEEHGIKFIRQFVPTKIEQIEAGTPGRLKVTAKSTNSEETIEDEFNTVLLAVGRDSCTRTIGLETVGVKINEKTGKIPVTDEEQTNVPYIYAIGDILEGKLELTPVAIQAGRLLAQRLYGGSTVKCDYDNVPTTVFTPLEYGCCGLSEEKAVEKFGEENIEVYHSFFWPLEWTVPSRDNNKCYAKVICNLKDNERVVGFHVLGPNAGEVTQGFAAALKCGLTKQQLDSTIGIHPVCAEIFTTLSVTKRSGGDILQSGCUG
Experiment: DTNB reduction assay on purified rat liver TrxR1; BIAM labelling of Sec/Cys residues
Assay type: biochemical

CCC(=C(c1ccc(OC)cc1)c1ccc(OC)cc1)c1cc[n+]2c(c1)-c1cccc[n+]1[Au-]2([Cl])[Cl].F[P-](F)(F)(F)(F)F [AuTAML]
DTNB reduction assay on purified rat liver TrxR1; BIAM labelling of Sec/Cys resi: a strong inhibition of TrxR1 activity was observed at low nanomolar concentrations of the Au(III) complex
